Read-outs that look alike come from different tables or passages of the source.
Experiments:
[1] = format: in vivo, human; conditions: for AUCinf central value, higher than in subjects with normal renal function: regression analyses
[2] = format: in vivo, human
[3] = human, plasma, oral
[4] = cited from earlier work
[5] = mild renal impairment (N = 6), single 15-mg extended-release dose, fasting
[6] = normal renal function (N = 6), single 15-mg extended-release dose, fasting
[7] = severe renal impairment (N = 6), single 15-mg extended-release dose, fasting
[8] = single 15 mg dose, all subjects

CL renal ([1]; both, human, urine and plasma, oral, 15 mg): 32.7 mL/min | fe (fraction of dose excreted unchanged in urine), arithmetic mean ± SD [1, 5]: 7.03 ± 3.05% | fe (fraction of dose excreted unchanged in urine), geometric mean [1, 5]: 6.51% | CLR (renal clearance), arithmetic mean ± SD [1, 6]: 5.64 ± 2.13 L/h | fe (fraction of dose excreted unchanged in urine), arithmetic mean ± SD [1, 6]: 9.91 ± 4.05% | fe (fraction of dose excreted unchanged in urine), geometric mean [1, 6]: 9.24% | AUCinf central value, higher than in subjects with normal renal function ([1]; mild renal impairment): 18% | AUCinf central value, higher than in subjects with normal renal function ([1]; moderate renal impairment): 33% | AUCinf central value, higher than in subjects with normal renal function ([1]; severe renal impairment): 44% | fe (fraction of dose excreted unchanged in urine), arithmetic mean ± SD [1, 7]: 2.48 ± 1.62% | fe (fraction of dose excreted unchanged in urine), geometric mean [1, 7]: 2.10% | CL renal [3]: ~400 mL/min
SMILES: CC[C@@H]1CN(C(=O)NCC(F)(F)F)C[C@@H]1c1cnc2cnc3[nH]ccc3n12 [Upadacitinib]
Adverse events ([2]; one subject in the mild renal impairment group, mild, reasonable possibility of being related to study drug, no other adverse events reported): diarrhea and upper respiratory infection | Physical exam, vital signs, electrocardiogram and laboratory findings [2, 8]: no clinically significant physical exam findings, vital sign measurements, electrocardiogram abnormalities, or laboratory test abnormalities | Tolerability [2, 8]: well tolerated | Immediate-release dose eliminated in urine as unchanged upadacitinib ([4]; immediate-release formulation): Approximately 20% | Dose proportionality of plasma exposures ([4]; over the range of immediate-release or extended-release doses evaluated in clinical studies): approximately dose‐proportional

Source: article PMC6590375 (Journal of Clinical Pharmacology, 2019)
